The text below walks through data of the OPERA property sets (Mansouri et al. 2018).

Converted amounts (≈) assume the structure as drawn. Where a SMILES comes first, the peptide text is derived from it.

Conditions in one series: not given
As a reminder, the solubility is how much of the substance goes into solution per volume. Read a low solubility as a poorly soluble substance. `CC(C)[C@H](NC(=O)CN)C(=O)O` (H-Gly-Val-OH) had a solubility of 2870 mM (≈ 500000 µg/mL).
Still for that read-out and setting: the result for `O=S(=O)(O)c1cnc[nH]1` reads 1350 mM (≈ 200000 µg/mL); that for `Oc1ccc(-c2ccccc2)cc1O`, 8.59 mM (≈ 1600 µg/mL); that for `CCOC(=O)c1c(C(=O)O)ccc(OC)c1OC`, 5.58 mM (≈ 1420 µg/mL).
The same measure, in the same setting: with `C=CCc1ccc(OCC(=O)O)c(OC)c1` the figure was 5.27 mM (≈ 1170 µg/mL); with `CC=Cc1ccc(OCC(=O)O)c(OC)c1`, 26.1 mM (≈ 5810 µg/mL).
`N#CC1CCCC1=O` (stereo unspecified) registered a solubility of 440 mM (≈ 48000 µg/mL).
`O=C(c1ccccc1I)N(O)c1ccccc1` gave a solubility of 0.295 mM (≈ 100 µg/mL).
Still for that read-out and setting: the result for `CC(=O)OC(C)C#N` (stereo unspecified) reads 1770 mM (≈ 200000 µg/mL); that for `O=C1Cc2c(ccc3ccccc23)O1`, 1.96 mM (≈ 361 µg/mL).

The series is the same for the next values; noted with them: 20 °C.
The compound `CN(C)c1nc2c[nH]cnc-2n1` had a solubility of 40.9 mM (≈ 6670 µg/mL).
Same read-out and setting: with `Cc1ncnc2c(O)cccc12` the figure was 2.5 mM (≈ 400 µg/mL).
The compound `CCC(CC)(CC)NC(N)=O` showed a solubility of 15.2 mM (≈ 2400 µg/mL).
Same read-out and setting: the result for `CCOc1nsc(N)n1` reads 223 mM (≈ 32400 µg/mL); that for `Oc1cc2ccccc2cc1C1=NCCN1`, 0.499 mM (≈ 106 µg/mL); that for `NNC(N)=S`, 110 mM (≈ 10000 µg/mL).
Same read-out and setting: with `Nc1ccc(Cl)cc1[N+](=O)[O-]` the figure was 2.9 mM (≈ 500 µg/mL); with `CN(C)c1ncc2nccnc2n1`, 2280 mM (≈ 400000 µg/mL); with `CC(C)Cc1nnc(NS(=O)(=O)c2ccc(N)cc2)s1`, 0.15 mM (≈ 47 µg/mL).
Same read-out and setting: the result for `COc1c(C(=O)O)oc2ccccc12` reads 1.3 mM (≈ 250 µg/mL); that for `Nc1c(S(=O)(=O)O)cc(S(=O)(=O)O)c2ccc(S(=O)(=O)O)cc12`, 480 mM (≈ 184000 µg/mL); that for `COc1ccccc1C(N)=O`, 16.5 mM (≈ 2500 µg/mL).
With `O=c1ncc2[nH]cnc2[nH]1`, the solubility amounted to 19.3 mM (≈ 2630 µg/mL). This solubility and that of the compound before are within 1.5-fold of each other.
Consider `O=c1[nH]ccc2cccnc12`, for which the solubility was found to be 72 mM (≈ 10500 µg/mL). This solubility lies about 3.7-fold higher than the previous one.
Same read-out and setting: with `Cc1nc2c(=O)n(C)c(=O)n(C)c2nc1C` the figure was 45.4 mM (≈ 10000 µg/mL).

The series is the same for the next values; noted with them: 25 °C.
`Nc1cc(S(=O)(=O)O)ccc1C(=O)O` showed a solubility of 48.3 mM (≈ 10500 µg/mL).
On the same count and under the same terms, the result for `CC(C)C[C@H](NC=O)C(=O)O` (racemic) reads 185 mM (≈ 29500 µg/mL).
Compound `CCCCCCNC(=O)c1cccnc1` came in with a solubility of 3.01 mM (≈ 620 µg/mL).
In turn, `O=NN1CCCC1=O` showed a solubility of 1130 mM (≈ 129000 µg/mL).
Same read-out and setting: with `O=C(O)CC[Se][Se]CCC(=O)O` the figure was 5.39 mM (≈ 1640 µg/mL); with `CCCCOC(=O)C(C)OC(C)=O` (stereo unspecified), 176 mM (≈ 33200 µg/mL).
In turn, `CCCCC(=O)Oc1ccc([N+](=O)[O-])cc1` returned a solubility of 0.0403 mM (≈ 9 µg/mL).
With `CCNCNC(=O)c1ccccc1`, the solubility was 842 mM (≈ 150000 µg/mL).
The same measure, in the same setting: with `CCCC(O)CC(C)C` (stereo unspecified) the figure was 12.4 mM (≈ 1610 µg/mL); with `Cc1nc(Br)[nH]c1[N+](=O)[O-]`, 16.2 mM (≈ 3330 µg/mL).
Turning to `CC(N)C(O)C(=O)O` (stereo unspecified), the solubility was determined as 443 mM (≈ 52800 µg/mL).
For `ON=C1C=CC(=NO)c2ncccc21`, the solubility turned out to be 0.159 mM (≈ 30 µg/mL).
With `CCCCOC(=O)CCOCC`, the solubility is 23 mM (≈ 4000 µg/mL).
The same measure, in the same setting: the result for `CC(C)[C@H](NCCC#N)C(=O)O` reads 75.2 mM (≈ 12800 µg/mL); that for `CC(=O)CC(CC(=O)O)c1ccccc1` (stereo unspecified), 35.8 mM (≈ 7380 µg/mL).

The series is the same for the next values; noted with them: 30 °C.
In the case of `CCCCOC(=O)c1ccc(O)c(I)c1`, the solubility came out at 0.125 mM (≈ 40 µg/mL).
